Test [1] has as its target T1, Aldo-keto reductase family 1 member C4 (Homo sapiens, UniProt P17516).
T1 sequence (P17516 whole entry): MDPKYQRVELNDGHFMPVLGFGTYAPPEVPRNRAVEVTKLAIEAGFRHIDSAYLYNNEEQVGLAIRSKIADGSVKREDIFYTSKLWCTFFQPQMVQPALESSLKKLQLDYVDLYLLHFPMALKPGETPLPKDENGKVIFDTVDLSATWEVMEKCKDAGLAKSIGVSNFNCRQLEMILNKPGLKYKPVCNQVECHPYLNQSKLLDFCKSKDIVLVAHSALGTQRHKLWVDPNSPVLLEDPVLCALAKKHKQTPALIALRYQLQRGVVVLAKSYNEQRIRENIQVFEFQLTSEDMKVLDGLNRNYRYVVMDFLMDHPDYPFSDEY
In words: Inhibition of recombinant AKR1C4 (unknown origin) after 1 hr by competitive fluorescence assay.

Test [2] deals with T2, Aldo-keto reductase family 1 member C1 (Homo sapiens, UniProt Q04828).
T2 sequence (Q04828 whole entry): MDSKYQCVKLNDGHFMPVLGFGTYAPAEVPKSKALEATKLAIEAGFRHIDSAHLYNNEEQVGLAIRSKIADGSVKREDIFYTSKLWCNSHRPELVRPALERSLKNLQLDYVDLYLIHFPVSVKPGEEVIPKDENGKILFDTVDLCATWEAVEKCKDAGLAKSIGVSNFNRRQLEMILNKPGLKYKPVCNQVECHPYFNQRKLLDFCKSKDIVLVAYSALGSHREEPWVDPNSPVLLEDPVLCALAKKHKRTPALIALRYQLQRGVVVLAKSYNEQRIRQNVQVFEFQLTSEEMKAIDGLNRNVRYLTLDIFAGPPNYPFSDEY
In words: Inhibition of recombinant AKR1C1 (unknown origin) after 1 hr by competitive fluorescence assay.

For test [3], the target named is T3, Aldo-keto reductase family 1 member C2 (Homo sapiens, UniProt P52895).
T3 sequence (P52895 whole entry): T2 sequence (Q04828 whole entry) with T38V, R47H, L54V, C87S, V151M, R170H, Q172L
In words: Inhibition of recombinant AKR1C2 (unknown origin) after 1 hr by competitive fluorescence assay.

The target in test [4] is T4, Aldo-keto reductase family 1 member C3 (Homo sapiens, UniProt P42330).
T4 sequence (P42330 whole entry): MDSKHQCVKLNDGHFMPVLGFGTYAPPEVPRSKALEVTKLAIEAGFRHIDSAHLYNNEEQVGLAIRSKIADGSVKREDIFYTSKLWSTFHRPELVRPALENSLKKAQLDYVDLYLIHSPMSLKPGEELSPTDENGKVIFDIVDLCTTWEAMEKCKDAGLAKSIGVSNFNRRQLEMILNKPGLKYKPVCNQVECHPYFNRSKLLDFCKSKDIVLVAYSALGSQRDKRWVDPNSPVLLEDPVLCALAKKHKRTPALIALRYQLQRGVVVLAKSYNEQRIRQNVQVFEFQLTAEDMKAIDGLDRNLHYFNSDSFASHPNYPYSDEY
Briefly: Inhibition of recombinant AKR1C3 (unknown origin) after 1 hr by competitive fluorescence assay.

Test [5] concerns the target T4, Aldo-keto reductase family 1 member C3. In words: Inhibition of AKR1C3 (unknown origin) expressed in human HCT116 cells assessed as formation of PR-104H from PR-104A preincubated for 2 hrs. It is filed as cell-based, HCT-116.

Structures are written as SMILES. Changes are numbered by the printed parent chain. Bounds are passed on as bounds.

For the compound `O=C(N1CCOCC1)N1CCN(c2ccc(F)cc2)CC1`, the IC50 in test [1] is above 30 µM; in test [2], above 30 µM; in test [3] it was above 30 µM; in test [4], 0.5 µM.

`O=C(N1CCOCC1)N1CCN(c2ccccc2)CC1`: the IC50 was above 30 µM in test [1], above 30 µM in test [2], above 30 µM in test [3] and 6.1 µM in test [4].

On to `O=C(NC1CCCCC1)N1CCN(c2ccc(Cl)cc2)CC1`, for which the IC50 in test [4] was above 30 µM.

As to `O=C(N1CCCCC1)N1CCN(c2ccc(Cl)cc2)CC1`, the IC50 is above 30 µM in test [1], above 30 µM in test [2], above 30 µM in test [3] and 3.8 µM in test [4].

Take `O=C(c1ccccc1)N1CCN(c2ccc(Cl)cc2)CC1`: the IC50 in test [4] is above 30 µM.

As to `COc1ccccc1N1CCN(C(=O)N2CCOCC2)CC1`, in test [4], the IC50 amounted to 20.3 µM.

`CS(=O)(=O)Nc1ccc(N2CCN(C(=O)N3CCOCC3)CC2)cc1`: the IC50 in test [4] was above 30 µM.

For the compound `CN1CCN(C(=O)N2CCN(c3ccc(Cl)cc3)CC2)CC1`, the IC50 in test [4] is above 30 µM.

Regarding `O=C(N1CCN(CCO)CC1)N1CCN(c2ccc(Cl)cc2)CC1`, in test [4], the IC50 is above 30 µM.

As for `O=C(O)C1CCN(C(=O)N2CCN(c3ccc(Cl)cc3)CC2)CC1`, the IC50 in test [4] is 21.9 µM.

With `O=C(CO)N1CCN(C(=O)N2CCN(c3ccc(Cl)cc3)CC2)CC1`, the IC50 is 0.059 µM in test [5]; above 30 µM in test [1]; above 30 µM in test [2]; above 30 µM in test [3]; 0.46 µM in test [4].

With `O=C(N1CCN(c2ccc(Cl)cc2)CC1)N1CCc2ccccc2C1`, the IC50 in test [5] is 0.39 µM; in test [1] it was above 30 µM; in test [2], above 30 µM; in test [3] it was above 30 µM; in test [4] it was 0.35 µM.

`O=S(=O)(N1CCOCC1)N1CCN(c2ccc(Cl)cc2)CC1`: in test [4], the IC50 is above 30 µM.

On to `S=C(N1CCOCC1)N1CCN(c2ccc(Cl)cc2)CC1`, for which the IC50 in test [4] was above 30 µM.

As to `O=C(N1CCOCC1)N1CCCN(c2ccc(Cl)cc2)CC1`, in test [4], the IC50 was found to be 30 µM.

Take `O=C(N1CCOCC1)N1CC2CC1CN2c1ccc(Cl)cc1` (stereo not given): the IC50 is above 30 µM in test [1], above 30 µM in test [2], above 30 µM in test [3] and 3.7 µM in test [4].

With `CC(=O)Nc1ccc(N2CCN(C(=O)N3CCOCC3)CC2)cc1`, the 50% inhibitory concentration (IC50) in test [4] is above 30 µM.

For the compound `O=C(N1CCOCC1)N1CCN(c2ccc(Cl)cc2Cl)CC1`, the IC50 in test [5] is 0.003 µM; in test [1], above 30 µM; in test [2], above 30 µM; in test [3], above 30 µM; in test [4] it was 0.025 µM.

As to `Cc1cc(Cl)ccc1N1CCN(C(=O)N2CCOCC2)CC1`, the IC50 in test [5] is 0.013 µM; in test [1] it was above 30 µM; in test [2], above 30 µM; in test [3] it was above 30 µM; in test [4], 0.11 µM.

`O=C(N1CCOCC1)N1CCN(c2ccc(Cl)cc2CO)CC1`: the IC50 was 0.013 µM in test [5]; above 30 µM in test [1]; above 30 µM in test [2]; above 30 µM in test [3]; 0.16 µM in test [4].

On to `O=C(N1CCOCC1)N1CCN(c2ccc(Cl)nc2)CC1`, for which the IC50 in test [1] is above 30 µM; in test [2], above 30 µM; in test [3], above 30 µM; in test [4], 0.53 µM.

Turning to `O=C(N1CCOCC1)N1CCN(c2ccc(Br)cn2)CC1`, the IC50 in test [5] is 0.031 µM; in test [1], above 30 µM; in test [2] it was above 30 µM; in test [3], above 30 µM; in test [4] it was 0.1 µM.

For `O=C(N1CCOCC1)N1CCN(Cc2ccc(Cl)cc2)CC1`, the concentration for half-maximal inhibition (IC50) in test [1] was above 30 µM; in test [2], above 30 µM; in test [3], above 30 µM; in test [4] it was 0.35 µM.

For the compound `O=C(c1ccc(Cl)cc1)N1CCN(C(=O)N2CCOCC2)CC1`, the IC50 in test [1] was above 30 µM; in test [2], above 30 µM; in test [3] it was above 30 µM; in test [4], 0.48 µM.

In the case of `O=C(C1CCOCC1)N1CCN(c2ccc(Cl)cc2)CC1`, the IC50 in test [4] was above 30 µM.

As to `O=C(C1CCCCC1)N1CCN(c2ccc(Cl)cc2)CC1`, the IC50 in test [4] was above 30 µM.

`O=C(Nc1ccccc1)N1CCN(c2ccc(Cl)cc2)CC1`: the 50% inhibitory concentration (IC50) in test [4] is above 30 µM.

Consider `O=C(c1ccncc1)N1CCN(c2ccc(Cl)cc2)CC1`, for which, in test [4], the 50% inhibitory concentration (IC50) came to 12.6 µM.

For the compound `O=C(N1CCSCC1)N1CCN(c2ccc(Cl)cc2)CC1`, the IC50 is above 30 µM in test [1], above 30 µM in test [2], above 30 µM in test [3] and 9.1 µM in test [4].

On to `O=C(N1CCN(c2ccc(Cl)cc2)CC1)N1CC[S+]([O-])CC1`, for which the IC50 in test [4] is above 30 µM.

Take `O=C(N1CCN(c2ccc(Cl)cc2)CC1)N1CCS(=O)(=O)CC1`: the IC50 in test [4] is above 30 µM.

Regarding `O=C(N1CCOCC1)N1CCN(c2cnc3ccccc3c2)CC1`, the IC50 was above 30 µM in test [1], above 30 µM in test [2], above 30 µM in test [3] and 2.9 µM in test [4].

Take `C#Cc1ccc(N2CCN(C(=O)N3CCOCC3)CC2)cc1`: the IC50 in test [1] is above 30 µM; in test [2], above 30 µM; in test [3], above 30 µM; in test [4], 0.66 µM.

Regarding `COC(=O)c1ccc(N2CCN(C(=O)N3CCOCC3)CC2)cc1`, the IC50 in test [1], in test [2], in test [3] and in test [4] was above 30 µM throughout.

With `O=C(O)c1ccc(N2CCN(C(=O)N3CCOCC3)CC2)cc1`, in test [4], the IC50 was above 30 µM.

Take `NC(=O)c1ccc(N2CCN(C(=O)N3CCOCC3)CC2)cc1`: in test [4], the IC50 was above 30 µM.

Take `CNC(=O)c1ccc(N2CCN(C(=O)N3CCOCC3)CC2)cc1`: the IC50 in test [4] was above 30 µM.

For the compound `CN(C)C(=O)c1ccc(N2CCN(C(=O)N3CCOCC3)CC2)cc1`, the half-maximal inhibitory concentration (IC50) in test [4] was above 30 µM.

Turning to `CS(=O)(=O)c1ccc(N2CCN(C(=O)N3CCOCC3)CC2)cc1`, the IC50 in test [1] was above 30 µM; in test [2] it was above 30 µM; in test [3], above 30 µM; in test [4] it was 5.52 µM.

As to `O=C(N1CCOCC1)N1CCN(c2ccc([N+](=O)[O-])cc2)CC1`, the half-maximal inhibitory concentration (IC50) in test [1] is above 30 µM; in test [2] it was above 30 µM; in test [3], above 30 µM; in test [4], 0.57 µM.

As for `Cc1ccccc1N1CCN(C(=O)N2CCOCC2)CC1`, the IC50 in test [4] came out at 12.1 µM.

Consider `O=C(N1CCOCC1)N1CCN(c2ccccc2Cl)CC1`, for which the IC50 is above 30 µM in test [1], above 30 µM in test [2], above 30 µM in test [3] and 2.3 µM in test [4].

Turning to `O=C(N1CCOCC1)N1CCN(c2ccccc2C(F)(F)F)CC1`, the IC50 is above 30 µM in test [1], above 30 µM in test [2], above 30 µM in test [3] and 0.7 µM in test [4].

As for `O=C(N1CCOCC1)N1CCN(c2cccc(Cl)c2)CC1`, the IC50 in test [1] was above 30 µM; in test [2], above 30 µM; in test [3] it was above 30 µM; in test [4], 5.3 µM.

In the case of `NC(=O)c1cccc(N2CCN(C(=O)N3CCOCC3)CC2)c1`, the IC50 in test [4] was above 30 µM.

With `Cc1ccc(N2CCN(C(=O)N3CCOCC3)CC2)cc1`, the IC50 in test [1] is above 30 µM; in test [2] it was above 30 µM; in test [3], above 30 µM; in test [4] it was 0.36 µM.

In the case of `COc1ccc(N2CCN(C(=O)N3CCOCC3)CC2)cc1`, the IC50 is above 30 µM in test [1], above 30 µM in test [2], above 30 µM in test [3] and 0.35 µM in test [4].

As for `O=C(N1CCOCC1)N1CCN(c2ccc(-c3ccccc3)cc2)CC1`, in test [4], the IC50 is above 30 µM.

`O=C(N1CCOCC1)N1CCN(c2ccc3ccccc3c2)CC1`: the IC50 in test [1] is above 30 µM; in test [2], above 30 µM; in test [3] it was above 30 µM; in test [4], 4.9 µM.
